Experimental data taken from patent publication US11707503B2, “Modulators of complement activity” (Ra Pharmaceuticals, Inc., priority 2015, dated 2023).
pIC50: −log10 of the molar value. Starred links: 1 amine or outer side, 2 acyl side, 3 side chain; linkers in the order of their positions; H or OH if unused. Positions of bridges follow the written chain, without caps; N, C: chain ends. Non-standard residues stand in square brackets, D forms with d. Residues, ends and D or L forms follow the SMILES beside them. Trp(7-aza) = N[C@@H](Cc1c[nH]c2ncccc12)C(=O)O; pXylylene = c1cc(C[*:2])ccc1C[*:1]; Phg = N[C@H](C(=O)O)c1ccccc1; NMeS = CN[C@@H](CO)C(=O)O; Nva = CCC[C@H](N)C(=O)O

How the values were obtained:
primate C5 protein = test: Ex vivo hemolysis assay with cynomolgus plasma; type: cell-based, cynomolgus monkey
Description: At each time-point, the hemolytic activity was determined as an indicator of active serum complement (see FIG. 4).

[1] = Pharmacokinetic studies in rat (IV and SC); conditions: SC 30 mg/kg, combined R3152 and R3201
Excerpt: In the figure, circles represent concentrations obtained after SC dose and squares represent concentrations obtained after IV dose.
Blood samples were collected at indicated time points, processed into plasma, and analyzed for the indicated compound by LC-MS. […] Blood samples were collected at indicated time points, processed into plasma, and analyzed for the indicated compound by LC-MS.

rat C5 [2] = test: Ex vivo hemolysis assays, rat PK study; type: cell-based; conditions: rat plasma after dosing
rat C5 [3] = test: Binding to rat C5 (statement)
[4] = 3 mg/kg IV, cynomolgus monkey
[5] = Compound stability in human plasma; type: in vitro ADME
Description: Compounds were assayed for stability in human plasma under the following conditions. Human plasma was obtained from Bioreclamation (Westbury, N.Y.) and collected in sodium heparin. Plasma was adjusted to pH 7.4. DMSO stocks at 10 mM concentration were prepared for the test compounds. Aliquots of the DMSO solutions were dosed into 1 mL of plasma, which had been pre-warmed to 37° C., at a final test compound concentration of 10 μM. The vials were kept in a benchtop THERMOMIXER® (Eppendorf, Hauppauge, N.Y.) for the duration of the experiment. Aliquots (100 μL) were taken at each timepoint and added to a 96-well plate that had been pre-filled with 300 μL of an acetonitrile solution containing mixture of the internal standards (metoprolol, propranolol and warfarin each at 500 ng/mL). […] Aliquots of the supernatant were removed and analyzed by LC-HRAMS.

C5 [6] = molecular target: T1, C5 (Homo sapiens, UniProt P01031); test: Competitive fluorescence polarization (FP) binding assay with probe R3076; design: purchased Complement Technology, Tyler, Tex
T1 sequence (P01031 678-1676 limits assumed): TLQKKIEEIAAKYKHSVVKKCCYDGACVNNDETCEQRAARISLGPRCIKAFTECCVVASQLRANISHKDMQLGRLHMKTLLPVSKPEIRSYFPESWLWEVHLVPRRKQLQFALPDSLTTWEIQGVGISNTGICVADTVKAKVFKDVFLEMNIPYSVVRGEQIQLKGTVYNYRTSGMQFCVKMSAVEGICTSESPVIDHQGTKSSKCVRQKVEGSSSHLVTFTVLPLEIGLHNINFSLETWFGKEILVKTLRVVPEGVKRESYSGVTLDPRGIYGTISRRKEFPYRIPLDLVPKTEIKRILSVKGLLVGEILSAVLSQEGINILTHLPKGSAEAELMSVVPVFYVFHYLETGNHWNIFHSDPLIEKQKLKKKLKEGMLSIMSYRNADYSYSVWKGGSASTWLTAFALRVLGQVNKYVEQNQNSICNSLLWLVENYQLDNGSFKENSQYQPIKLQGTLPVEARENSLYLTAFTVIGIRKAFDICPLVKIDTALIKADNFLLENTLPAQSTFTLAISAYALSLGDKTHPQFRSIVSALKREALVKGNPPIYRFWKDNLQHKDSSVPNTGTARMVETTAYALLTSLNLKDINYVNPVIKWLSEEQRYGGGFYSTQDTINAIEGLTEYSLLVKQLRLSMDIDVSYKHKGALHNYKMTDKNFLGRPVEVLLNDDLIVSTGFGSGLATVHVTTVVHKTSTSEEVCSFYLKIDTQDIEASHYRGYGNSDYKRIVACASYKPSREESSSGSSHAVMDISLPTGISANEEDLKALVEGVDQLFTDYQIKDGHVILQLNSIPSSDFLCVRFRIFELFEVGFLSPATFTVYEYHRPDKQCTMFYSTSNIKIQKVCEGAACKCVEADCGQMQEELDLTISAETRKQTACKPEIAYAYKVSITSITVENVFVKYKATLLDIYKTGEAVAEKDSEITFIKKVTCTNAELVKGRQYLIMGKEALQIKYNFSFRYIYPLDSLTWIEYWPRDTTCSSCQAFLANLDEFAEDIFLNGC
T1 sequence (P01031 19-673 limits assumed): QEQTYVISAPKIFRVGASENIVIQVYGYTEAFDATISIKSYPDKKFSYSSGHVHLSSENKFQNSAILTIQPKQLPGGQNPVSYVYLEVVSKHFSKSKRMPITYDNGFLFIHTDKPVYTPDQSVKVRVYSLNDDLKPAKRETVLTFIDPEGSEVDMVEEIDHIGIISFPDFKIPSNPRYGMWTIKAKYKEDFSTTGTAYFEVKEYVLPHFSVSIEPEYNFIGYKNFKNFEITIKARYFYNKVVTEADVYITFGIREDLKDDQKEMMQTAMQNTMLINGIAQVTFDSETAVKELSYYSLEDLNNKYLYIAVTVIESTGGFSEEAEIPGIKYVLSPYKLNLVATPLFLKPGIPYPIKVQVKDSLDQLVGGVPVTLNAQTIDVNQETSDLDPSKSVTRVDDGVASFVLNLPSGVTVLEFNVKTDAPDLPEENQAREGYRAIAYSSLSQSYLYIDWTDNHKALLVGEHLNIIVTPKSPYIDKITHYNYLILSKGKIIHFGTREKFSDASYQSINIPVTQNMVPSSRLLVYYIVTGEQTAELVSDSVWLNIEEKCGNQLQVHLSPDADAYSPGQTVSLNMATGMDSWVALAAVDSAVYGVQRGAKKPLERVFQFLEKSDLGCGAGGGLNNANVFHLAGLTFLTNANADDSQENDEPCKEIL
Description: FP was used for screening competitive polypeptide inhibitors of the C5 protein. […] The BODIPY-TMR dye attached to the C-terminal lysine of the protein and the subsequent labeled probe was purified by HPLC.
Human C5 protein was diluted to 200 nM in assay buffer, composed of TBS (EMD Millipore, Billerica, Mass.)+0.005% Triton-X (Sigma, Saint Louis, Mo.). 10 μl of assay buffer was added to all wells of a black, non-binding, 384-well assay plate (Greiner, Monroe, N.C.) and 10 μl of diluted C5 protein stock was added to experimental and designated control wells.
Probe R3076 (SEQ ID NO: 40) was diluted 1 to 10 in DMSO (Life Technologies, Grand Island, N.Y.) and 30 μl of that stock was diluted in 3 ml of assay buffer to yield a 100 nM stock. 10 μl of this working stock was then added to each well in the assay plate. The assay plate was incubated at room temperature, protected from light, for 20 minutes to allow binding to reach equilibrium.
Test articles listed in Table 7 were subsequently diluted in DMSO then assay buffer, comprising 10 2-fold dilutions and were then added to the assay plate in triplicate, rapidly. The assay plate was then incubated in the Paradigm (Molecular Devices, Sunnyvale, Calif.) plate reader for 60 minutes at 25° C.
After incubation for 60 minutes, the plate was read using the Paradigm FP protocol (Molecular Devices, Sunnyvale, Calif.) and raw polarization values were imported into Graphpad Prism.

C5 [7] = molecular target: T1, C5; test: Human hemolysis assay (RBC lysis assay using complete human sera); type: cell-based; design: with complete human sera (Complement Technology, Tyler Tex.) and polypeptides; tissue Complement Technology, Tyler Tex; host or cells: complete human serum; conditions: compounds tested in in vivo studies; average IC50, assay and unit inferred
Description: Polypeptides listed in Table 3, as well as their optimized derivatives (see Table 4) were assessed for inhibitor activity using a red blood cell hemolysis assay. […] Human sera was rapidly thawed at 37° C. and then stored on ice until diluted into GVB++. Ten 6-fold serial dilutions of polypeptides (10 mM stock, DMSO) were performed in DMSO and then added to buffer. 50 μl of each polypeptide dilution was combined with sera and 100 μl of cells in individual wells of a 96-well tissue culture-treated clear microtitre plate (USA Scientific, Ocala, Fla.) and resuspended by pipetting. Samples were incubated at 37° C. for one hour. […] Data was fit with a log-logit formula producing a dose-response curve and IC50. As used herein, the term “IC50” refers to the half maximal inhibitory concentration, a value used to indicate the amount of the inhibitor needed to reduce a given reaction or process by half.
The human constant light chain kappa and IgG2 constant heavy chain sequences were used for the constants regions of the antibody. This antibody was expressed from human embryonic kidney cells (HEK293) and purified by Protein A affinity chromatography. […] Human sera was rapidly thawed at 37° C. and then stored on ice until diluted into GVB++. Ten 6-fold serial dilutions of each compound (10 mM stock, DMSO) were performed in DMSO and then added to buffer. 50 μl of each compound dilution was combined with sera and 100 μl of cells in individual wells of a 96-well tissue culture-treated clear microtitre plate (USA Scientific, Ocala, Fla.) and resuspended by pipetting. Samples were incubated at 37° C. for one hour. […] Data was fit with a log-logit formula producing a dose-response curve and IC50 (see FIG. 11A).

SMILES	time after dosing at which hemolytic activity returned to normal levels (primate C5 protein; 3 mg/kg IV, plasma levels fell below 100 ng/ml) [h]	plasma concentration with clear inhibition of complement-mediated hemolysis (primate C5 protein; ex vivo, plasma diluted 1:100, after 3 mg/kg IV) [ng/mL]	bioavailability of dose, based on AUC [1]	inhibitory activity in ex vivo hemolysis assays (rat C5 [2])	binding to rat C5 (rat C5 [3])	average AUC∞ [4] [ng·h/mL]	mean clearance rate [4] [mL/min/kg]	mean terminal half-life [4] [h]	mean volume of distribution [4] [L/kg]	stability in human plasma in words [5]	Percent remaining at time 0 hrs ([5]; 37° C., 10 μM, 0 hrs) [%]	competition for / affinity for C5 in words (C5 [6])	pIC50 (C5 [7])
CCC[C@H](NC(=O)[C@@H](NC(=O)[C@@H]1CCCN1C(=O)[C@H](Cc1ccc(O)cc1)NC(=O)[C@H](CCC(=O)O)NC(=O)[C@H](Cc1c[nH]c2ncccc12)NC(=O)[C@H](Cc1ccc(O)cc1)NC(=O)[C@@H](NC(=O)[C@H](CC(=O)O)NC(=O)[C@@H]1CSCc2cccc(c2)CSC[C@H](NC(C)=O)C(=O)N[C@@H](C(C)C)C(=O)N[C@@H](CCC(=O)O)C(=O)N[C@@H](CCCNC(=N)N)C(=O)N[C@@H](Cc2ccccc2)C(=O)N1)C(C)(C)C)C1CCCCC1)C(N)=O [Compound R3152, [mXylyl(1,6)]Ac-C-V-E-R-F-C-D-Tbg-Y-azaTrp-E-Y-P-Chg-Nvl-NH2]	48	> 200	approximately 65%	very little inhibitory activity	do not bind	23319 ± 2120	2.15 ± 0.203	10.9 ± 0.8	1.49 ± 0.152	–	–	–	–
CCC[C@H](NC(=O)[C@@H]1CSCc2ccc(cc2)CSC[C@H](NC(=O)[C@H](CCC)NC(C)=O)C(=O)N[C@@H](c2ccccc2)C(=O)N[C@@H]([C@@H](C)O)C(=O)N[C@@H](Cc2c[nH]c3ncccc23)C(=O)N[C@@H](CCC(=O)O)C(=O)N[C@@H](Cc2ccc(O)cc2)C(=O)N(C)[C@@H](CO)C(=O)N[C@@H](Cc2c[nH]cn2)C(=O)N1)C(N)=O [Compound R3050, [pXylyl(2,10)]Ac-Nvl-C-Phg-T-azaTrp-E-Y-(N—Me)S-H-C-Nvl-NH2] (Ac-[Nva]C[Phg]T[Trp(7-aza)]EY[NMeS]HC[Nva]-NH2; linker 2-10 via pXylylene)	–	–	–	–	–	–	–	–	–	highly stable	100	relatively strong affinity	–
CCC[C@H](NC(=O)[C@@H](NC(=O)[C@@H]1CCCN1C(=O)[C@H](Cc1ccc(O)cc1)NC(=O)[C@H](CCC(=O)O)NC(=O)[C@H](Cc1c[nH]c2ncccc12)NC(=O)[C@H](Cc1ccc(O)cc1)NC(=O)[C@@H](NC(=O)[C@H](CC(=O)O)NC(=O)[C@@H]1CSCc2cccc(c2)CSC[C@H](NC(C)=O)C(=O)N[C@@H](C(C)C)C(=O)N[C@@H](CCC(=O)O)C(=O)N[C@@H](CCCNC(=N)N)C(=O)N[C@@H](Cc2ccccc2)C(=O)N1)C(C)(C)C)C1CCCCC1)C(=O)O [Compound R3201, [mXylyl(1,6)]Ac-C-V-E-R-F-C-D-Tbg-Y-azaTrp-E-Y-P-Chg-Nvl]	–	–	–	–	do not bind	–	–	–	–	–	–	–	8.11
